Source: patent US12655072B2, “Formulation system for compositions for enhancing nitrogen stabilizers” (Verdesian Life Sciences U.S., LLC, priority 2020, dated 2026)

Key:
[1] = tested on: soil; test: Field study: soil collection for determination of N-NO3 and N-NH4; assay type: in vivo
Method: (§1) The activity of nitrate reductase enzyme at V2-V3 and flowering (first fully developed leaf, three plants per plot) was measured. In addition, soil collection was performed for the determination of N-NO3 and N-NH4 up to 30 days after the application of the cover. This methodology was adapted by Cataldo et al (1975) and Kemper; Zewers (1986). Soil Fertility Center ([…]). Growth analysis was performed on dry plant mass every 30 days. Harvesting was performed at physiological maturity. The plants of the three central lines of each plot was harvested excluding 1.0 meter at each end. The rows were measured and the number of plants and ears per row harvested were counted. After harvesting, manual threshing was performed and the 100 grain mass was determined as well as the yield of the crop. Harvest results were estimated for kg/ha and bu/acre.

[2] = tested on: nitrate reductase enzyme; test: Field study: activity of nitrate reductase enzyme in the leaves; assay type: in vivo, corn
Method: as §1

[3] = tested on: corn hybrid AG 8088 VT PRO; test: Field study, no-till rainfed corn: harvest, dry plant mass, N content; assay type: in vivo; conditions: 135 kg/ha of N
Method: A field study was carried out of an area under no-till system that was cultivated with rainfed corn (i.e., without irrigation). The corn cultured was a corn hybrid AG 8088 VT PRO (High yield) with a Standak Top of 100 mL/ha and a plant density of 77,000 plants/ha. The following three formulations were applied at three different rates ([…]) to a field: • Trident Formulation (10-10-10; % polymer-% DCD-% NBPT) • Trident V Formulation (5-5-15; % polymer-% DCD-% NBPT) • Trident N Formulation (5-20-5; % polymer-% DCD-% NBPT)
As a control, plants were only treated with the nitrogen fertilizer (e.g., UAN with 30%-45% N) or were left untreated.
The nitrogen fertilizer was applied with 135 kg/ha of N, which corresponds to a dose of 75N/bu for 10.8 ton/ha of maize. In addition a typical herbicide, fungicide and insecticide program was adopted to remove all study variability due to weeds, diseases or insects throughout the study period;
The activity of nitrate reductase enzyme at V2-V3 and flowering (first fully developed leaf, three plants per plot) was measured. In addition, soil collection was performed for the determination of N—NO3 and N—NH4 up to 30 days after the application of the cover. This methodology was adapted by Cataldo et al (1975) and Kemper; Zewers (1986). Soil Fertility Center (CEFERT). Growth analysis was performed on dry plant mass every 30 days. Harvesting was performed at physiological maturity. The plants of the three central lines of each plot was harvested excluding 1.0 meter at each end. The rows were measured and the number of plants and ears per row harvested were counted. After harvesting, manual threshing was performed and the 100 grain mass was determined as well as the yield of the crop. Harvest results were estimated for kg/ha and bu/acre.

[4] = cited from earlier work
[5] = first collection within 30 days
[6] = second collection within 30 days

| Structure (SMILES) | 1 NH4 (NH4 values in the soil) [1, 5] [mg/kg] | 1 NO3 (NO3 values in the soil) [1, 5] [mg/kg] | 2 NH4 (NH4 values in the soil) [1, 6] [mg/kg] | 2 NO3 (NO3 values in the soil) [1, 6] [mg/kg] | 1 ANR (activity of the enzyme nitrate reductase in the leaves) ([2]; first measurement (measured at V2-V3 and flowering)) | 2 ANR (activity of the enzyme nitrate reductase in the leaves) ([2]; second measurement (measured at V2-V3 and flowering)) | MSCaule (production of dry mass of corn plants: corn plant stems) [3] [g plant−1] | MSEspiga [3] [g plant−1] | MSFolhas (production of dry mass of corn plants: leaves) [3] [g plant−1] | MSTotal (production of total dry mass of corn plants) [3] [g plant−1] | N Folha (leaf nitrogen content) [3] [dag kg−1] | N Grão [3] [kg ha−1] | grains of corn on the corn ear (FIG. 3) ([3]; compared to untreated) | solubility in water [4] |
| --- | --- | --- | --- | --- | --- | --- | --- | --- | --- | --- | --- | --- | --- | --- |
| NC(N)=O [Urea N, urea] | 31.97 | 34.16 | 25.93 | 27.07 | 137.51 | 74.82 | 148.04 | 191.75 | 80.28 | 420.06 | 2.24 | 115.04 | exhibited more grains of corn compared to ears that were untreated |  |
| N#CN=C(N)N [dicyandiamide] |  |  |  |  |  |  |  |  |  |  |  |  |  | about 41 g/l |
